The source of these data is US20110281896A1, “OPTICALLY PURE QUINAZOLINE COMPOUNDS” (Jiangsu Hansoh Pharmaceutical Co. Ltd, priority 2009, published 2011).

SMILES strings stand for the structures.

For assay [1], the system named is human lung cancer Calu-3 xenografts. As to the kind of experiment: Effect on xenografts in nude mice with lung cancer Calu-3. It counts as in vivo, BALB/cA-nude mice. The settings on record: for Initial Tumor Volume (mm^3) D0: D0 = time of first administration (baseline); for Initial Tumor Volume (mm^3) D0 / Final Tumor Inhibition Rate (%) D16 / % T/C D16 / Relative Tumor Volume D16 / Final Tumor Volume (mm^3) D16 / The Recession/Group / inhibition of growth of human lung cancer Calu-3 (in words): PO QD × 17; for Initial Tumor Volume (mm^3) D0 / Final Tumor Inhibition Rate (%) D16 / % T/C D16 / Relative Tumor Volume D16 / Final Tumor Volume (mm^3) D16 / The Recession/Group: 146.5-146.7 mg/kg; for Initial Tumor Volume (mm^3) D0 / Relative Tumor Volume D16 / Final Tumor Volume (mm^3) D16: mean; for % T/C D16: C = mean tumor volume of drug, control group; for Final Tumor Volume (mm^3) D16: D16 = 17th day after administration; for The Recession/Group: number of mice per group of 6. The method, then: Effect of compound 97(±), compound 97, compound 110 and Lapatinib (positive control) on xenografts in nude mice with lung cancer Calu-3 Remark: “±” means the compound is racemic.
The purpose of the experiment is to evaluate and compare the effect of compound 97(±), compound 97, compound 110, Lapatinib on xenografts in nude mice with lung cancer Calu-3.
BALB/cA-nude mice, 6-7 weeks, ♀, purchased from ShangHai Slac laboratory animal Co., Ltd.
Calu-3 cells were injected subcutaneously into nude mice. Animals were divided into groups (d0) randomly after tumors have grown to 150-300 mm^3. Dosage and dosage regimen design can be seen in table 1. Tumors volume was measured 2-3 times per week. Mice were weighed and data were recorded. Calculation formula for tumor volume (V) is as below:
V=½×a×b^2, wherein, a and b represent length and width respectively.

In a further assay the test system is A431. As to the kind of experiment: Antitumor activity in vitro, SRB cell proliferation inhibition. Format: cell-based. The settings on record: 72 h incubation, Logit method. On the procedure:
(§1) Evaluation of Antitumor Activity In Vitro
(§2) Cell Strains: A431; MCF-7
(§3) Experiment Design: Cells were incubated with different concentrations of compounds for 72 hours. The inhibition of cell proliferation by the compounds was evaluated by SRB, followed by calculation of the inhibition rate. Then, value of IC50 was calculated by using-Logit method base on the inhibition rate and used to compare in vitro antitumor activity of the compounds.
(§4) Method for Calculating the Inhibition Rate: Inhibition rate (%)=(OD value of control group−OD value of drug group)/OD value of control group×100%

The subject of the next assay is MCF-7. The description is as above. Format: cell-based. The settings on record: 72 h incubation, Logit method. On the procedure:
as §1, §2, §3, §4

The mark [2] stands for this setting: Homo sapiens, A-431, A431 cells.
Setting [3] is: Homo sapiens, MCF7, MCF-7 cells.
Where [4] appears, read: xenografts in nude mice, PO QD × 17, 146.7 mg/kg.

With `CS(=O)(=O)CCNCc1ccc(-c2ccc3ncnc(Nc4ccc(OCc5cccc(F)c5)c(Cl)c4)c3c2)o1` [Lapatinib, reference compound], in assay [1], the “Initial Tumor Volume (mm^3) D0” value was found to be 262.3 mm^3, the “Final Tumor Inhibition Rate (%) D16” value was determined as 42%, the “% T/C D16” value amounted to 58% and the “Relative Tumor Volume D16” value stood at 2.0. For the same molecule, in assay [1], the “Final Tumor Volume (mm^3) D16” value was determined as 526.5 mm^3 and the “The Recession/Group” value is recorded as 0. Further, the “inhibition of growth of human lung cancer Calu-3 (in words)” value (shortened to “inhibition of growth … (in words)”) in assay [1] (xenografts in nude mice) is “inhibited the growth of human lung cancer Calu-3 significantly”. Besides, the concentration for half-maximal inhibition (IC50) in the assay with A431 (setting [2]) was found to be 0.643 µM. The IC50 in the assay on MCF-7 (setting [3]) was determined as 8.47 µM.

For `CN[C@@H](CS(C)(=O)=O)c1cnc(-c2ccc3ncnc(Nc4ccc(OCc5cccc(F)c5)c(Cl)c4)c3c2)s1` [Compound 119], the IC50 was found to be 0.588 µM in the assay on A431 (A431 cells) and 6.12 µM in the assay on MCF-7 (MCF-7 cells).

In the case of `CN(C)[C@@H](CS(C)(=O)=O)c1ccc(-c2ccc3ncnc(Nc4ccc(OCc5cccc(F)c5)c(Cl)c4)c3c2)o1` [Compound 110, (R)—N-(4-(3-fluorobenzyl-oxy)-3-chlorophenyl)-6-(5-(1-(N,N-dimethyl-amino)-2-(methylsulfonyl)ethyl)-2-yl)quinazolin-4-amine], in assay [1], the “Initial Tumor Volume (mm^3) D0” value is 249.1 mm^3, the “Final Tumor Inhibition Rate (%) D16” value was found to be 77%, the “% T/C D16” value is 23% and the “Relative Tumor Volume D16” value was found to be 0.8. In addition, in assay [1], the “Final Tumor Volume (mm^3) D16” value amounted to 187.4 mm^3 and the “The Recession/Group” value is reported as 1. In addition, the “inhibition of growth … (in words)” value in assay [1] (xenografts in nude mice) was “inhibited the growth of human lung cancer Calu-3 significantly”. For the same molecule, in assay [1] (setting [4]), the “fraction of the tumors in mice caused to shrink” value is recorded as “⅚” and the “number of mice with tumor shrinking more than 50% in volume” value is recorded as “one”. This molecule had a 50% inhibitory concentration (IC50) in the assay on A431 (A431 cells) of 0.768 µM. Further, inhibition in the assay with MCF-7 (MCF-7 cells) was half-maximal at 5.67 µM (IC50).

Turning to `CCCN[C@H](CS(C)(=O)=O)c1ccc(-c2ccc3ncnc(Nc4ccc(OCc5cccc(F)c5)c(Cl)c4)c3c2)o1` [Compound 95, (S)—N-(4-(3-fluorobenzyl-oxy)-3-chlorophenyl)-6-(5-(1-(propyl-amino)-2-(methylsulfonyl)ethyl)furan-2-yl)quinazolin-4-amine], the 50% inhibitory concentration (IC50) in the assay with A431 (setting [2]) came to 0.453 µM; in the assay on MCF-7 (setting [3]), 7.9 µM.

In the case of `CN[C@H](CS(C)(=O)=O)c1cnc(-c2ccc3ncnc(Nc4ccc(OCc5cccc(F)c5)c(Cl)c4)c3c2)s1` [Compound 132], the IC50 is 0.389 µM with A431 (A431 cells) and 9.91 µM with MCF-7 (MCF-7 cells).

As for `CN(C)[C@H](CS(C)(=O)=O)c1ccc(-c2ccc3ncnc(Nc4ccc5c(cnn5Cc5cccc(F)c5)c4)c3c2)o1` [Compound 149, (S)—N-(1-(3-fluorobenzyl)-1H-indazol-5-yl)-6-(5-(1-(N,N-dimethylamino)-2-(methylsulfonyl)ethyl)furan-2-yl)quinazolin-4-amine], the IC50 in the assay with A431 (setting [2]) was 0.349 µM; in the assay on MCF-7 (setting [3]) it was 7.23 µM.

Turning to `CN(C)[C@H](CS(C)(=O)=O)c1ccc(-c2ccc3ncnc(Nc4ccc(OCc5cccc(F)c5)c(Cl)c4)c3c2)o1` [Compound 97, (S)—N-(4-(3-fluorobenzyloxy)-3-chlorophenyl)-6-(5-(1-(N,N-dimethyl-amino)-2-(methylsulfonyl)ethyl)furan-2-yl)quinazolin-4-amine], in assay [1], the “Initial Tumor Volume (mm^3) D0” value is 291.2 mm^3, the “Final Tumor Inhibition Rate (%) D16” value was 44%, the “% T/C D16” value turned out to be 56% and the “Relative Tumor Volume D16” value is listed as 1.9. For the same molecule, in assay [1], the “Final Tumor Volume (mm^3) D16” value was determined as 525.4 mm^3 and the “The Recession/Group” value is on record as 0. The “inhibition of growth … (in words)” value in assay [1] (xenografts in nude mice) is on record as “inhibited the growth of human lung cancer Calu-3 significantly”. In the assay on A431 (setting [2]), the IC50 was found to be 0.734 µM. Further, in the assay on MCF-7 (setting [3]), the IC50 came out at 6.67 µM.

`CCN(CC)[C@@H](CS(C)(=O)=O)c1cnc(-c2ccc3ncnc(Nc4ccc(OCc5cccc(F)c5)c(Cl)c4)c3c2)s1` [Compound 124]: the IC50 came out at 0.685 µM with A431 (A431 cells) and 7.98 µM with MCF-7 (MCF-7 cells).

In the case of `CS(=O)(=O)C[C@@H](N)c1cnc(-c2ccc3ncnc(Nc4ccc(OCc5cccc(F)c5)c(Cl)c4)c3c2)s1` [Compound 131, (R)—N-(4-(3-fluorobenzyl-oxy)-3-chlorophenyl)-6-(5-(1-(amino)-2-(methylsulfonyl)ethyl)thiazole-2-yl)quinazolin-4-amine], the IC50 in the assay with A431 (setting [2]) was 0.582 µM; in the assay with MCF-7 (setting [3]), 8.53 µM.

By IC50 is commonly meant the concentration at which inhibition is half-maximal. A low value points to greater potency.
